{"source": "paper PMC9098912", "about": "“Molecular basis for inhibiting human glucose transporters by exofacial inhibitors” (Nature Communications, 2022)", "key": {"human GLUT3(N43T)": {"target": "T1, human GLUT3(N43T) (Homo sapiens, UniProt P11169, N43T)", "T1 construct": "His10 (N); made in house; host or cells: Sf9 insect cells (baculovirus)", "T1 sequence (P11169 1-496 N43T)": "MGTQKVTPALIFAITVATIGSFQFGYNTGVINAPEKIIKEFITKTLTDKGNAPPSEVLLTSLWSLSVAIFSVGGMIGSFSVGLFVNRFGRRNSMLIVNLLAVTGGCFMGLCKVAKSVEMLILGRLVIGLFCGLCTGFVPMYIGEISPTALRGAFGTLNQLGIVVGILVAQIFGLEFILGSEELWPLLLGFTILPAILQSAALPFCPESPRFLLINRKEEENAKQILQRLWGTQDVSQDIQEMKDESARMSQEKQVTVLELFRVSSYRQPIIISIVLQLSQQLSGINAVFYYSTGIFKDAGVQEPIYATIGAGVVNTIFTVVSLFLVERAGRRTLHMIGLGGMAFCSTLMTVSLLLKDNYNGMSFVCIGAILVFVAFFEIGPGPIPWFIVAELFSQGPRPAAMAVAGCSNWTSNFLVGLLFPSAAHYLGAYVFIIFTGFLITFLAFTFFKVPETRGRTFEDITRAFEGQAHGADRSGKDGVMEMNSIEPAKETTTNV", "assay": "Proteoliposome-based counterflow assay, inhibition of D-[2-3H]-glucose transport", "format": "biochemical", "method": "(§1) All mutants were generated by standard PCR-based strategy.\n(§2) All counterflow assays were performed at 25 °C. […] Liposome without protein was used as negative control.\n(§3) All experiments were repeated at least three times."}, "[1]": {"target": "T2, human glucose transporter GLUT1(N45T) (Homo sapiens, UniProt P11166, N45T)", "T2 construct": "made in house", "T2 sequence (P11166 1-492 N45T)": "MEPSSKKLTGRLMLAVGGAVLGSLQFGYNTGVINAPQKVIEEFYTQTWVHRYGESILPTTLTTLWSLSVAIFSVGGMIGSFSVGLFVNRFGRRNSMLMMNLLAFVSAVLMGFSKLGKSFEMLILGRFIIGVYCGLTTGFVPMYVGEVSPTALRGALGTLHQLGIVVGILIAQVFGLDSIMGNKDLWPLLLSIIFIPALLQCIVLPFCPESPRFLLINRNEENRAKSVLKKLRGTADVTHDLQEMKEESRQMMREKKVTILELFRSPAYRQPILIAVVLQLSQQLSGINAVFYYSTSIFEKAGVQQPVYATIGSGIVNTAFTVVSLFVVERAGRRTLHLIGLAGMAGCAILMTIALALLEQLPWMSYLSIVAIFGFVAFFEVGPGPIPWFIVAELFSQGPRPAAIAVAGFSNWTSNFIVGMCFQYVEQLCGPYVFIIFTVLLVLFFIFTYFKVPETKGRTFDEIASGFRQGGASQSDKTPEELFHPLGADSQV", "assay": "Proteoliposome-based counterflow assay, inhibition of D-[2-3H]-glucose transport", "format": "biochemical", "conditions": "GLUT1", "method": "as §1, §2, §3"}, "GLUT1": {"target": "T3, GLUT1 (Homo sapiens, UniProt P11166, N45T)", "T3 construct": "made in house", "T3 sequence (P11166 1-492 N45T)": "T2 sequence (P11166 1-492 N45T)", "assay": "Microscale thermophoresis (MST) binding assay", "conditions": "for Figure 2c: MST binding curve, Mean: log[SA47]", "method": "as §1\n(§4) Inhibitors with serial dilutions were mixed with indicated protein. […] MST analyses were conducted on a Monolith NT. […] The MST data was analyzed by Monolith NT.115."}, "[2]": {"target": "T4, GLUT3exo (GLUT3 S64W and I305W) (Homo sapiens, UniProt P11169, I305W/N43T/S64W)", "T4 construct": "His10 (N); made in house; host or cells: Sf9 insect cells (baculovirus)", "T4 sequence (P11169 whole entry N43T/S64W/I305W)": "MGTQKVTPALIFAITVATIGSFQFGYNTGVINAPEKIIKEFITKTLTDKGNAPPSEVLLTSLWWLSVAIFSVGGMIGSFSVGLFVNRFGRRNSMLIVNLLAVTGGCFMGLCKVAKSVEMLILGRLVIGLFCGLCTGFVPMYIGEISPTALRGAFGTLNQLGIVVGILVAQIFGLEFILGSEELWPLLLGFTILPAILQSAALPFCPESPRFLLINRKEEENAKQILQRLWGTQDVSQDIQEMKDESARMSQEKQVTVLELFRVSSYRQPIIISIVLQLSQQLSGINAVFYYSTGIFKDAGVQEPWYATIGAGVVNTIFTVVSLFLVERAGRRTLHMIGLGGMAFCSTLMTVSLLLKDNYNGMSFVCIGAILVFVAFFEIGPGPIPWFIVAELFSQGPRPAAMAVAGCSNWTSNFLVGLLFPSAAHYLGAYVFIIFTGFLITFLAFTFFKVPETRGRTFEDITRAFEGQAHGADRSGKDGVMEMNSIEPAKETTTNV", "assay": "biochemical", "format": "binding", "conditions": "for Figure 2c: MST binding curve, Mean: GLUT3 dTrp mutant, log[SA47]", "method": "Following the same principle for the engineering of XylE-WW, we introduced two Trp substitutions, S64W and I305W, on the extracellular segments of TM2 and TM8 of GLUT3, respectively. This variant will be referred to as GLUT3exo hereafter (Fig. 1a). The two bulky substituents were expected to trap GLUT3 in an outward-facing conformation.\nas §1, §4"}}, "data": [{"molecule": "COC(=O)CCNCc1ccccc1-n1ncc2c(N3CCN(c4cc(F)ccc4OC)CC3)ncnc21", "note": "[SA47]", "values": [{"measurement": "IC50", "setting": "human GLUT3(N43T)", "value": "823 ± 138", "unit": "nM"}, {"measurement": "inhibition at 160 µM", "setting": "human GLUT3(N43T); SA47 at 160 μM", "value": "~85", "unit": "%"}, {"measurement": "IC50", "setting": "[1]", "value": "331 ± 38.3", "unit": "nM"}, {"measurement": "inhibition at 160 µM", "setting": "[1]; SA47 at 160 μM", "value": "~85", "unit": "%"}, {"measurement": "Kd", "setting": "GLUT1", "value": "310 ± 58.2", "unit": "nM"}, {"measurement": "Figure 2c: MST binding curve, Mean", "setting": "GLUT1; M -4.90309", "value": 102.821}, {"measurement": "Figure 2c: MST binding curve, Mean", "setting": "GLUT1; M -5.20412", "value": 94.0406}, {"measurement": "Figure 2c: MST binding curve, Mean", "setting": "GLUT1; M -5.50515", "value": 85.0371}, {"measurement": "Figure 2c: MST binding curve, Mean", "setting": "GLUT1; M -5.80618", "value": 78.9623}, {"measurement": "Figure 2c: MST binding curve, Mean", "setting": "GLUT1; M -6.10721", "value": 63.517}, {"measurement": "Figure 2c: MST binding curve, Mean", "setting": "GLUT1; M -6.40824", "value": 44.2639}, {"measurement": "Figure 2c: MST binding curve, Mean", "setting": "GLUT1; M -6.70927", "value": 30.0958}, {"measurement": "Figure 2c: MST binding curve, Mean", "setting": "GLUT1; M -7.0103", "value": 11.0052}, {"measurement": "Figure 2c: MST binding curve, Mean", "setting": "GLUT1; M -7.31133", "value": 3.8567}, {"measurement": "Figure 2c: MST binding curve, Mean", "setting": "GLUT1; M -7.61236", "value": 3.527}, {"measurement": "Figure 2c: MST binding curve, Mean", "setting": "GLUT1; M -7.91339", "value": -1.6488}, {"measurement": "Figure 2c: MST binding curve, Mean", "setting": "GLUT1; M -8.21442", "value": -3.8284}, {"measurement": "Figure 2c: MST binding curve, Mean", "setting": "GLUT1; M -8.51545", "value": 7.0621}, {"measurement": "Figure 2c: MST binding curve, Mean", "setting": "GLUT1; M -8.81648", "value": 2.3819}, {"measurement": "Kd", "setting": "[2]", "value": "314 ± 80.7", "unit": "nM"}, {"measurement": "Figure 2c: MST binding curve, Mean", "setting": "[2]; M -4.60206", "value": 107.845}, {"measurement": "Figure 2c: MST binding curve, Mean", "setting": "[2]; M -4.90309", "value": 92.9206}, {"measurement": "Figure 2c: MST binding curve, Mean", "setting": "[2]; M -5.20412", "value": 96.8426}, {"measurement": "Figure 2c: MST binding curve, Mean", "setting": "[2]; M -5.50515", "value": 85.0858}, {"measurement": "Figure 2c: MST binding curve, Mean", "setting": "[2]; M -5.80618", "value": 74.1558}, {"measurement": "Figure 2c: MST binding curve, Mean", "setting": "[2]; M -6.10721", "value": 60.9811}, {"measurement": "Figure 2c: MST binding curve, Mean", "setting": "[2]; M -6.40824", "value": 46.911}, {"measurement": "Figure 2c: MST binding curve, Mean", "setting": "[2]; M -6.70927", "value": 34.266}, {"measurement": "Figure 2c: MST binding curve, Mean", "setting": "[2]; M -7.31133", "value": -0.7525}, {"measurement": "Figure 2c: MST binding curve, Mean", "setting": "[2]; M -7.61236", "value": 4.6276}, {"measurement": "Figure 2c: MST binding curve, Mean", "setting": "[2]; M -7.91339", "value": 1.8858}, {"measurement": "Figure 2c: MST binding curve, Mean", "setting": "[2]; M -8.21442", "value": 1.3955}, {"measurement": "Figure 2c: MST binding curve, Mean", "setting": "[2]; M -8.51545", "value": 4.478}, {"measurement": "Figure 2c: MST binding curve, Mean", "setting": "[2]; M -8.81648", "value": -6.1144}]}]}
